Assay results published in patent US20250098678A1, “METHOD OF CONTROLLING FUNGI” (UPL CORPORATION LIMITED, priority 2022, published 2025).

Legend:
Plasmopara halstedii = test: Anti-fungal activity of treated sunflower seeds against Plasmopara halstedii (seed treatment, % incidence); format: in vivo; settings: for % Incidence: sunflower seed treatment, 12 DAS, inoculated with P. halstedii
Description: Example 1: Evaluation of Anti-Fungal Activity of Sunflower Seeds Treated with Cyazofamid Against Plasmopara halstedii One tray for each treatment was filled with perlite that was covered with two layers of watered paper. Treated seeds were placed between the layers under sterile conditions and incubated at 22° C. to 24° C., 100% relative humidity (RH) for 48 h. Zoosporangia from cotyledons of sunflower plants previously infected by an isolate of P. halstedii were removed with deionized water. The suspension was filtered through two layers of sterile cheesecloth and the inoculum concentration was adjusted to 2×10^5 zoosporangia/ml. Treated and germinated seeds were immersed in the zoosporangial suspension for 5 hours. Bioassays were then designed and conducted under controlled growth conditions. Five pots per treatment were filled with perlite and nine sunflower seeds were sown in each pot. Plants were grown at 19° C., 70-100% relative humidity and a 10 h dark/14 h light photoperiod for 12 days. The seed arrangement was made as 50 seeds/plot (pot10×10 cm). The treatments used are depicted below. [table] The % incidence of fungal disease caused by Plasmapora halstedii was observed 12 DAS (days after sowing seeds).

Pythium ultimum = test: Anti-fungal activity of treated seeds against Pythium ultimum (field trials, patch score); format: in vivo; settings: for P. ultimum patch score: seed treatment, field trial
Text: Example 2: Evaluation of Anti-Fungal Activity of Maize Seeds Treated with Cyazofamid Against Pythium ultimum The present inventors have determined the % pathogen control of Pythium ultimum control in […] treated with cyazofamid in field trials. The treatments employed and the results have been depicted in table 3 below. [table]

Row | SMILES | % Incidence (Plasmopara halstedii; application rate 50 g/100/kg) [%] | % Incidence (Plasmopara halstedii; application rate 100 g/100/kg) [%] | P. ultimum patch score indicating the severity of the fungal disease (Pythium ultimum; compared to the untreated control, result in words) | P. ultimum patch score (Pythium ultimum; 10 g.ai/100 kg, 25 ml/100 kg seeds) [b] | P. ultimum patch score (Pythium ultimum; 20 g.ai/100 kg, 50 ml/100 kg seeds) [b] | P. ultimum patch score (Pythium ultimum; 30 g.ai/100 kg, 75 ml/100 kg seeds) [b] | P. ultimum patch score (Pythium ultimum; 50 g.ai/100 kg, 125 ml/100 kg seeds) [b] | P. ultimum patch score (Pythium ultimum; 100 g.ai/100 kg, 250 ml/100 kg seeds) [b] | % Incidence (Plasmopara halstedii; application rate 35 g/100/kg) [%] | % Incidence (Plasmopara halstedii; application rate 60 g/100/kg) [%] | occurrence of fungal disease (Plasmopara halstedii; treated sunflower seeds, result in words)
1 | Cc1ccc(-c2c(Cl)nc(C#N)n2S(=O)(=O)N(C)C)cc1 [Cyazofamid, 4-chloro-2-cyano-N,N-dimethyl-5-p-tolylimidazole-1-sulfonamide] | 0 | 0 | significantly low | 1.5 | 1.5 | 1.5 | 1.5 | 1.3 |  |  | 
2 | COCC(=O)N(c1c(C)cccc1C)C(C)C(=O)OC (centres unmarked) [Metalaxyl] |  |  |  |  |  |  |  |  | 53.49 | 62.24 | high
